Reference: PubChem BioAssay AID1918994 (Molecular Pharmacology Branch, DTP, NCI, 2023)
pIC50: −log10 of the molar value.

System: 292921-168-R-J2-PDC complex spheroid growth
Assay: Anticancer human tumor 292921-168-R-J2-PDC patient-derived pancreatic carcinoma cell line growth inhibition [AhR]
Conditions: for pIC50: curve of first compound; for viability, T/C: stronger effect = lower value
Summary of the method: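 Spheroids combined tumor cells with HUVEC endothelial cells and human MSCs as stroma. AhR antagonists were paired with standard or investigational drugs, each dosed in half-log steps down from near clinical Cmax, or from 10 microM where Cmax was unknown.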

[1] = second compound 0.1 µM, first compound 0.0316 µM
[2] = second compound 0.1 µM, first compound 0.1 µM
[3] = second compound 0.1 µM, first compound 0.316 µM
[4] = second compound 0.1 µM, first compound 1 µM
[5] = second compound 0.1 µM, first compound 3.16 µM
[6] = second compound 0.1 µM, first compound 10 µM
[7] = second compound 0.316 µM, first compound 0.0316 µM
[8] = second compound 0.316 µM, first compound 0.1 µM
[9] = second compound 0.316 µM, first compound 0.316 µM
[10] = second compound 0.316 µM, first compound 1 µM
[11] = second compound 0.316 µM, first compound 3.16 µM
[12] = second compound 0.316 µM, first compound 10 µM
[13] = second compound 1 µM, first compound 0.0316 µM
[14] = second compound 1 µM, first compound 0.1 µM
[15] = second compound 1 µM, first compound 0.316 µM
[16] = second compound 1 µM, first compound 1 µM
[17] = second compound 1 µM, first compound 3.16 µM
[18] = second compound 1 µM, first compound 10 µM
[19] = second compound 3.16 µM, first compound 0.0316 µM
[20] = second compound 3.16 µM, first compound 0.1 µM
[21] = second compound 3.16 µM, first compound 0.316 µM
[22] = second compound 3.16 µM, first compound 1 µM
[23] = second compound 3.16 µM, first compound 3.16 µM
[24] = second compound 3.16 µM, first compound 10 µM
[25] = second compound 10 µM, first compound 0.0316 µM
[26] = second compound 10 µM, first compound 0.1 µM
[27] = second compound 10 µM, first compound 0.316 µM
[28] = second compound 10 µM, first compound 1 µM
[29] = second compound 10 µM, first compound 3.16 µM
[30] = second compound 10 µM, first compound 10 µM
[31] = second compound 0.1 µM, first compound 0.00316 µM
[32] = second compound 0.1 µM, first compound 0.01 µM
[33] = second compound 0.316 µM, first compound 0.00316 µM
[34] = second compound 0.316 µM, first compound 0.01 µM
[35] = second compound 1 µM, first compound 0.00316 µM
[36] = second compound 1 µM, first compound 0.01 µM
[37] = second compound 3.16 µM, first compound 0.00316 µM
[38] = second compound 3.16 µM, first compound 0.01 µM
[39] = second compound 10 µM, first compound 0.00316 µM
[40] = second compound 10 µM, first compound 0.01 µM
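Note: spheroids exposed to compounds for seven days after three days of growth.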

Row | Structure (SMILES) | pIC50 (second compound 0.1 µM) | pIC50 (second compound 0.316 µM) | pIC50 (second compound 1 µM) | pIC50 (second compound 3.16 µM) | pIC50 (second compound 10 µM) | viability, T/C [1] | viability, T/C [2] | viability, T/C [3] | viability, T/C [4] | viability, T/C [7] | viability, T/C [8] | viability, T/C [9] | viability, T/C [10] | viability, T/C [13] | viability, T/C [14] | viability, T/C [15] | viability, T/C [16] | viability, T/C [19] | viability, T/C [20] | viability, T/C [21] | further results
1 | CC(C)c1c(-c2ccccc2)nc2c(C#N)c[nH]n2c1=O + CC(CO)NC(=O)c1cc(-c2ccc(Cl)cc2)nn(-c2cnn(C)c2)c1=O | < 5.00 | < 5.00 | < 5.00 | < 5.00 | < 5.00 | 104% | 105% | 104% | 105% | 103% | 102% | 99.6% | 96% | 109% | 102% | 104% | 97.1% | 86.8% | 91.9% | 94.1% | viability, T/C [5]: 109%; viability, T/C [6]: 101%; viability, T/C [11]: 101%; viability, T/C [12]: 89.5%; viability, T/C [17]: 94.9%; viability, T/C [18]: 99.6%; viability, T/C [22]: 89.8%; viability, T/C [23]: 80.8%; viability, T/C [24]: 84.2%; viability, T/C [25]: 69.7%; viability, T/C [26]: 67.3%; viability, T/C [27]: 71.2%; viability, T/C [28]: 63.8%; viability, T/C [29]: 62.6%; viability, T/C [30]: 68.5%
2 | CC1COCCN1c1cc(-c2ccnn2C)c2ccnc(-c3ccn[nH]3)c2n1 (stereo not given) + CC(CO)NC(=O)c1cc(-c2ccc(Cl)cc2)nn(-c2cnn(C)c2)c1=O | 7.36 | 7.33 | 7.48 | 7.55 | 7.99 | 56.1% | 31.4% | 22.7% | 19.7% | 56.6% | 35.3% | 22% | 17.8% | 49% | 29.1% | 21.5% | 17.3% | 46.9% | 24.9% | 17.7% | viability, T/C [31]: 93.5%; viability, T/C [32]: 91%; viability, T/C [33]: 96.8%; viability, T/C [34]: 84.1%; viability, T/C [35]: 100%; viability, T/C [36]: 90.8%; viability, T/C [37]: 86.6%; viability, T/C [38]: 75.2%; viability, T/C [22]: 17.1%; viability, T/C [39]: 62.8%; viability, T/C [40]: 51%; viability, T/C [25]: 26.8%; viability, T/C [26]: 19.7%; viability, T/C [27]: 15.3%; viability, T/C [28]: 15.8%
3 | COc1ccc([C@@H](O)c2cc(-c3ncnc4cc(N5CCOCC5)ccc34)c(F)cc2Cl)nn1 + CC(CO)NC(=O)c1cc(-c2ccc(Cl)cc2)nn(-c2cnn(C)c2)c1=O | 5.74 | 5.74 | 5.72 | 5.88 | 5.97 | 94.5% | 97.8% | 86.6% | 59.1% | 101% | 95.1% | 87% | 60.5% | 102% | 98.9% | 78.4% | 61.4% | 85.8% | 82.6% | 78.6% | viability, T/C [5]: 41.9%; viability, T/C [6]: 25.1%; viability, T/C [11]: 39.9%; viability, T/C [12]: 24.7%; viability, T/C [17]: 42.2%; viability, T/C [18]: 28.1%; viability, T/C [22]: 52.9%; viability, T/C [23]: 36%; viability, T/C [24]: 24.3%; viability, T/C [25]: 68%; viability, T/C [26]: 77.1%; viability, T/C [27]: 68.9%; viability, T/C [28]: 49.9%; viability, T/C [29]: 31.9%; viability, T/C [30]: 23.2%
4 | COc1cccc2c1C(=O)c1c(O)c3c(c(O)c1C2=O)CC(O)(C(=O)CO)CC3OC1CC(N)C(O)C(C)O1 (stereo not given) + Cc1ccccc1N=Nc1ccc(NC(=O)c2ccnn2C)c(C)c1 | > 7.50 | > 7.50 | > 7.50 | > 7.50 | > 7.50 | 24.3% | 17% | 5.13% | 0.17% | 20.1% | 15.5% | 4.33% | 0.12% | 23.3% | 16.1% | 2.12% | 3.61% | 19% | 13.9% | 1.59% | viability, T/C [5]: 0.69%; viability, T/C [6]: 1.91%; viability, T/C [11]: 0.59%; viability, T/C [12]: 2.35%; viability, T/C [17]: 0.65%; viability, T/C [18]: 5.48%; viability, T/C [22]: 5.2%; viability, T/C [23]: 0.73%; viability, T/C [24]: 1.88%; viability, T/C [25]: 17.2%; viability, T/C [26]: 12.1%; viability, T/C [27]: 0.42%; viability, T/C [28]: 0.36%; viability, T/C [29]: 1.18%; viability, T/C [30]: 4.37%
5 | Nc1ncn(C2CC(O)C(CO)O2)c(=O)n1 (stereo not given) + Cc1ccccc1N=Nc1ccc(NC(=O)c2ccnn2C)c(C)c1 | < 6.00 | < 6.00 | < 6.00 | < 6.00 | < 6.00 | 101% | 86% | 73.5% | 72.9% | 87% | 76.5% | 76% | 78.6% | 84.2% | 79.6% | 77.2% | 72.4% | 66.3% | 72.2% | 63% | viability, T/C [31]: 90.2%; viability, T/C [32]: 94.2%; viability, T/C [33]: 96.9%; viability, T/C [34]: 86.9%; viability, T/C [35]: 80.1%; viability, T/C [36]: 104%; viability, T/C [37]: 80.2%; viability, T/C [38]: 82.7%; viability, T/C [22]: 55.6%; viability, T/C [39]: 63%; viability, T/C [40]: 65.3%; viability, T/C [25]: 58.7%; viability, T/C [26]: 61.6%; viability, T/C [27]: 62.8%; viability, T/C [28]: 45%
